Numbers after ± are expanded uncertainties.
What was measured:
[1] = molar enthalpy of vaporization or sublimation; settings: 298.15 K; Crystal; Static calorimetry
[2] = Crystal; DTA
[3] = Molar enthalpy of transition or fusion; settings: Crystal; DSC

molar enthalpy [1]: 31.9 ± 0.717 kcal/mol | Triple point temperature [2]: 503.74 ± 0.39 K | Molar enthalpy of transition or fusion [3]: 7.47 ± 0.167 kcal/mol
Compound: O=c1ccc2ccc(O)cc2o1 [7-hydroxy-2H-chromen-2-one]
